Results from patent US9266939B2, “Compositions comprising natriuretic peptides and methods of use thereof” (Alexion Pharmaceuticals, Inc., priority 2010, dated 2016).
Where two headings read alike, the source gives them in different places. Bridge positions count the residues as written; N and C are the ends. Ends that are not written are not given here. Peptide text beside a SMILES is read from it.

Assays:
[1] = molecular target: T1, neutral endopeptidase (NEP) (Homo sapiens, UniProt P08473); experiment: in vitro; details: isolated enzyme neprilysin, pH 7.5
T1 sequence (P08473 whole entry): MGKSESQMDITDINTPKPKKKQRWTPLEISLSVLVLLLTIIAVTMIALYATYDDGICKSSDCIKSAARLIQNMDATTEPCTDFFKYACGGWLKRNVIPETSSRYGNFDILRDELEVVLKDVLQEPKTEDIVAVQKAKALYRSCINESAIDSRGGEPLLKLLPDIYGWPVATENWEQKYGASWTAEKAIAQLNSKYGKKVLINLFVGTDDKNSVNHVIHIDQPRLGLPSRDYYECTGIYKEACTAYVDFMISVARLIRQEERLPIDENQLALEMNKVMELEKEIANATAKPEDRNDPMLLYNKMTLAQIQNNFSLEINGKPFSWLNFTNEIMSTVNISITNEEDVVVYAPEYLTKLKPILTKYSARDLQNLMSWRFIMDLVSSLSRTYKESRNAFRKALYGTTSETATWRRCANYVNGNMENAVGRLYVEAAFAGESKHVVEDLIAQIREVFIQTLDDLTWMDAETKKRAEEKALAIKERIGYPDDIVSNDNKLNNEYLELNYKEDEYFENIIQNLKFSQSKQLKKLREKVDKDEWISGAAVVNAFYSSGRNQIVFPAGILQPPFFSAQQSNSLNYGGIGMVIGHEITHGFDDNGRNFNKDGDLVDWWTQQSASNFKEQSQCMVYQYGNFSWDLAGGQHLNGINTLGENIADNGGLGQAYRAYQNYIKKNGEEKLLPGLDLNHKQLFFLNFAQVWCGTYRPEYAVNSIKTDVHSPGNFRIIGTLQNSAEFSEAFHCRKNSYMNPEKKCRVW

[2] = molecular target: T1, neutral endopeptidase (NEP)
[3] = molecular target: T2, NPR-B (Homo sapiens, UniProt P20594); experiment: Whole cell guanylyl cyclase (cGMP) assay, NPR-B; format: cell-based; design: expressed in transfected cells; details: for Emax: read-out: % Efficacy
T2 sequence (P20594 23-1047): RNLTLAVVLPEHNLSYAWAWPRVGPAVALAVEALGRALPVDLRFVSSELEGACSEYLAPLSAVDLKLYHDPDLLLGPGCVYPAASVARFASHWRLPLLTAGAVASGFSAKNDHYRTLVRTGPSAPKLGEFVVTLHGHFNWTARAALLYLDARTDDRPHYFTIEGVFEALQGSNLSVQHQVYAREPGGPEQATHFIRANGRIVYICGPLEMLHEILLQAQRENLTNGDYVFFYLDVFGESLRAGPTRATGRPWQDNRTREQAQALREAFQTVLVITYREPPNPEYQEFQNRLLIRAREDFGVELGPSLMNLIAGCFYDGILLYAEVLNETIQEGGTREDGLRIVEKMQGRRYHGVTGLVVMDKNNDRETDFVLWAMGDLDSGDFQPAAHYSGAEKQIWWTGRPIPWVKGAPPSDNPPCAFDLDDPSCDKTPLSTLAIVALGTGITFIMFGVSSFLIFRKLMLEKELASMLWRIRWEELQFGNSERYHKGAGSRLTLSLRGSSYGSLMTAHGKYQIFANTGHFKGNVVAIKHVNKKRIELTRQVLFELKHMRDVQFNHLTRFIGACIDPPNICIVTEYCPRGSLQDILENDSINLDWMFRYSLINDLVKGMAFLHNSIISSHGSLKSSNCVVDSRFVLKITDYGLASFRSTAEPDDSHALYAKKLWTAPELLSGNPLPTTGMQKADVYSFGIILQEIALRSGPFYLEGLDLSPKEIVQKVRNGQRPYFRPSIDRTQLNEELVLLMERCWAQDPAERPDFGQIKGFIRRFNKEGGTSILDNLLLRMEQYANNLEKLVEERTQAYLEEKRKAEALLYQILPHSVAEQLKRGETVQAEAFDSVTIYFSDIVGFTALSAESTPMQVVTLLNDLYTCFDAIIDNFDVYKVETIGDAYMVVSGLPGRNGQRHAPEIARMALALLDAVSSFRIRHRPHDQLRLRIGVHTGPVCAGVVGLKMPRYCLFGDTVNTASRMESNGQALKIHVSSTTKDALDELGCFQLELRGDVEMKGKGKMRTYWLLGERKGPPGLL
Method: HEK293S cells in a semi-confluent 75 cm2 flask are transfected with 30 μg of plasmid DNA coding for the appropriate receptor, e.g., human NPR-B or NPR-A, using Lipofectamine-2000CD. Alternatively, a stable polyclonal HEK293 S cell line expressing either human NPR-B or NPR-A was used. 24 hours after transfection, cells are trypsinized and plated into 48-well plates at 1×10^5 cells/well. Guanylyl cyclase assay is carried out 24 hours post-plating. Cells are first incubated for 30 minutes at 37° C. with serum-free DMEM medium. Then, they are incubated in triplicate with or without increasing concentrations of reference or test proteins in serum-free DMEM supplemented with 1 mM IBMX and 0.5% BSA, at 37° C. for 30 minutes to one hour. CNP serves as a suitable reference for NPR-B, while ANP is a suitable reference for NPR-A. Finally, cells are washed with ice-cold PBS and solubilized in lysis buffer from Catchpoint cGMP kit (Molecular devices). Concentrations of cGMP in lysate are determined using the Catchpoint cGMP kit. Dose-response curves are analysed with GraphPad Prism 5 software using non-linear regression with four-parameter logistic equation.

Compound | remaining at 4 h [1] | % of control after 240 min [2] | Resist NEP degradation (No/Yes) [2] | EC50 Ratio versus CNP22 [3] | Rescue Ratio versus CNP22 [3] | EC50 ([3]; EC50) | EC50 ([3]; EC50 on NPR-B) | Rescue range ([3]; agonist concentration producing cGMP as 2.4 nM (lower) and 14 nM (high) CNP22) | Rescue Ratio Average ([3]; peptides, NPR-B whole cell cGMP assay) | Emax [3] | Rescue Ratio Average [3] | Rescue range [3] | potency compared with the other tested peptides [3]
CC[C@H](C)[C@@H]1NC(=O)[C@H](CCCNC(=N)N)NC(=O)[C@H](CC(=O)O)NC(=O)[C@H](CC(C)C)NC(=O)[C@H](CCCCN)NC(=O)[C@H](CC(C)C)NC(=O)CNC(=O)[C@H](Cc2ccccc2)NC(=O)[C@@H](NC(=O)CNC(=O)[C@H](CCCCN)NC(=O)[C@H](CO)NC(=O)[C@H](CC(C)C)NC(=O)CN)CSSC[C@@H](C(=O)N2CCC[C@H]2C(=O)N[C@@H](CO)C(=O)N[C@@H](CO)C(=O)N[C@@H](C)C(=O)N[C@@H](C)C(=O)N[C@@H](CCCNC(=N)N)C(=O)N[C@@H](CCCNC(=N)N)C(=O)O)NC(=O)CNC(=O)[C@H](CC(C)C)NC(=O)CNC(=O)[C@H](CO)NC(=O)[C@H](CCSC)NC(=O)[C@H](CO)NC(=O)CNC1=O [CDNP29-S3A4A5R6 [C14]] | 99% |  |  |  |  |  |  |  |  |  |  |  | 
CC[C@H](C)[C@@H]1NC(=O)[C@H](CCCNC(=N)N)NC(=O)[C@H](CC(=O)O)NC(=O)[C@H](CC(C)C)NC(=O)[C@H](CCCCN)NC(=O)[C@H](CC(C)C)NC(=O)CNC(=O)[C@H](Cc2ccccc2)NC(=O)[C@@H](NC(=O)CNC(=O)[C@H](CCCCN)NC(=O)[C@H](CO)NC(=O)[C@H](CC(C)C)NC(=O)CN)CSSC[C@@H](C(=O)N2CCC[C@H]2C(=O)N[C@@H](CO)C(=O)N[C@@H](CO)C(=O)N[C@@H](C)C(=O)N[C@@H](C)C(=O)N[C@@H](CCCNC(=N)N)C(=O)N[C@@H](CCCNC(=N)N)C(=O)N2CCC[C@H]2C(=O)N[C@@H](CC(N)=O)C(=O)N[C@@H](C)C(=O)N2CCC[C@H]2C(=O)N[C@@H](CO)C(=O)N[C@H](C(=O)N[C@@H](CO)C(=O)N[C@@H](C)C(=O)O)[C@@H](C)O)NC(=O)CNC(=O)[C@H](CC(C)C)NC(=O)CNC(=O)[C@H](CO)NC(=O)[C@H](CCSC)NC(=O)[C@H](CO)NC(=O)CNC1=O [CDNP-S3A4A5R6 [C13]] (HELM PEPTIDE1{G.L.S.K.G.C.F.G.L.K.L.D.R.I.G.S.M.S.G.L.G.C.P.S.S.A.A.R.R.P.N.A.P.S.T.S.A}$PEPTIDE1,PEPTIDE1,6:R3-22:R3$$$V2.0) | 100% |  |  |  |  |  |  |  |  |  |  |  | 
CC[C@H](C)[C@@H]1NC(=O)[C@H](CCCNC(=N)N)NC(=O)[C@H](CC(=O)O)NC(=O)[C@H](CC(C)C)NC(=O)[C@H](CCCCN)NC(=O)[C@H](CC(C)C)NC(=O)CNC(=O)[C@H](Cc2ccccc2)NC(=O)[C@@H](NC(=O)CNC(=O)[C@H](CCCCN)NC(=O)[C@H](CO)NC(=O)[C@H](CC(C)C)NC(=O)CN)CSSC[C@@H](C(=O)O)NC(=O)CNC(=O)[C@H](CC(C)C)NC(=O)CNC(=O)[C@H](CO)NC(=O)[C@H](CCSC)NC(=O)[C@H](CO)NC(=O)CNC1=O [CNP22, reference compound] | 0% | 0% | No | 1.00 | 1 | 14.7 ± 3.4 nM | 4.87 nM | 2.4 to 14 nM | 1 | 100% |  |  | 
CC[C@H](C)[C@@H]1NC(=O)[C@H](CCCNC(=N)N)NC(=O)[C@H](CC(=O)O)NC(=O)[C@H](CC(C)C)NC(=O)[C@H](CCCCN)NC(=O)[C@H](CC(C)C)NC(=O)CNC(=O)[C@H](Cc2ccccc2)NC(=O)[C@@H](NC(=O)CNC(=O)[C@H](CCCCN)NC(=O)[C@H](CO)NC(=O)[C@H](CC(C)C)NC(=O)CNC(=O)CNC(=O)[C@H](CO)NC(=O)[C@H](CO)NC(=O)[C@H](C)NC(=O)[C@H](C)NC(=O)[C@@H]2CCCN2C(=O)[C@H](CCCNC(=N)N)NC(=O)[C@@H]2CCCN2C(=O)[C@H](CC(N)=O)NC(=O)[C@H](C)NC(=O)[C@@H]2CCCN2C(=O)[C@H](CO)NC(=O)[C@@H](NC(=O)[C@H](CO)NC(=O)[C@H](C)N)[C@@H](C)O)CSSC[C@@H](C(=O)O)NC(=O)CNC(=O)[C@H](CC(C)C)NC(=O)CNC(=O)[C@H](CO)NC(=O)[C@H](CCSC)NC(=O)[C@H](CO)NC(=O)CNC1=O [CNP-Nterm2 [C5]] (HELM PEPTIDE1{A.S.T.S.P.A.N.P.R.P.A.A.S.S.G.G.L.S.K.G.C.F.G.L.K.L.D.R.I.G.S.M.S.G.L.G.C}$PEPTIDE1,PEPTIDE1,21:R3-37:R3$$$V2.0) | 106% |  |  |  |  |  |  |  |  |  |  |  | 
DDDDDDGGGGSGGGGSGGGGGLSKGCFGLKLDRIGSMSGLGC (disulfide 26-42) [D6-14AAlinker-CNP [C3]] | 101% |  |  |  |  |  |  |  |  |  |  |  | 
EEEEEEASTSPANPQPAASSPGLSKGCFGLKLDRIGSMSGLGC (disulfide 27-43) [C2(E6) [BC2]] | 101% |  | Yes | 49.0 | 177-1429 | 720 nM |  |  |  | 97% | 803 | 424 to 20000 nM | 
EEEEEEHGPQGQEHPNARKYKGANKKGLSKGCFGLKLDRIGSMSGLGC (disulfide 32-48) [KA1(E6)] | 108% |  | Yes | 9.79 |  | 144 nM |  |  |  | 108% | 8.2 | 21.6 to 102 nM | more potent than the other tested peptides
EEEEEEHKLRGQEHPNARKYKGANKKGLSKGCFGLKLDRIGSMSGLGC (disulfide 32-48) [KB1(E6)] | 107% |  | Yes | 5.75 | 5.6-5.6 | 84.5 nM |  |  |  | 109% | 5.6 | 13.4 to 78.1 nM | more potent than the other tested peptides
EEEEEEPSSAAPQPNAPSTSAGLSKGCFGLKLDRIGSMSGLGC (disulfide 27-43) [C3(E6) [BC3]] | 100% |  | Yes | 67.4 | 117-281 | 990 nM |  |  |  | 67% | 199 | 280 to 3927 nM | 
EEEEEESGGGGSGGGGSGGGGGLSKGCFGLKLDRIGSMSGLGC (disulfide 27-43) [C1(E6) [BC1]] | 99% |  | Yes | 118 | 120-124 | 1740 nM |  |  |  | 97% | 122 | 289 to 1733 nM | 
EEEEEESGGGGSGGGKGANKKGLSKGCFGLKLDRIGSMSGLGC (disulfide 27-43) [C4(E6) [BC4]] | 94% |  | Yes | 20.5 |  | 302 nM |  |  |  | 136% | 18 | 46 to 219 nM | 
EEEEEESGGGGSGGGKGANKQGLSKGCFGLKLDRIGSMSGLGC (disulfide 27-43) [C6(E6) [BC6]] | 98% |  | Yes | 45.7 | 55-70 | 672 nM |  |  |  | 88% | 63 | 132 to 973 nM | 
EEEEEESGGGGSGGGKGANQKGLSKGCFGLKLDRIGSMSGLGC (disulfide 27-43) [C7(E6) [BC7]] | 98% |  | Yes | 68.6 | 74-85 | 1010 nM |  |  |  | 95% | 80 | 177 to 1193 nM | 
EEEEEESGGGGSGGGKGANQQGLSKGCFGLKLDRIGSMSGLGC (disulfide 27-43) [C9(E6) [BC9]] | 98% |  | Yes | 79.3 | 76-97 | 1170 nM |  |  |  | 95% | 87 | 183 to 1358 nM | 
